From patent US6596692B1, “Substance P analogs for the treatment of cancer” (Dabur Research Foundation, priority 2000, dated 2003)
Non-standard residues stand in square brackets, D forms with d. Residues, ends and D or L forms follow the SMILES beside them. *: point of attachment. Octanoyl = CCCCCCCC(=O)*; pHOPA = not defined here; Ac5c = NC1(C(=O)O)CCCC1; Butyryl = CCCC(=O)*

Experiments:
MCF7 (breast) = test: In vitro cytotoxic activity, MTT assay, 72 hours; type: cell-based, human; settings: MCF-7, 100 pM
Experimental: (§1) In vitro Cytotoxic Activity of the Novel Synthesized Peptide Analogs
(§2) The cytotoxic activity of synthesized peptides was tested on six human tumor cell lines namely MCF7 (breast), U373 (glioblastoma), PTC, (colon), L132 (lung), Su.86.86 (pancreas), and KB (oral). The tumor cells were collected at exponential growth phase and resuspended in medium (1.5×10^6 cells/ml in RPMI 1640 containing 10% FBS). 150 μL of medium was added to the wells of a 96-well tissue culture plate (Nunc, Denmark) followed by 30 μl of cell suspension. The plate was left in an incubator (37° C., 5% CO2) overnight. 20 μl of the peptide (100 pM to 10 μM concentration) was added to marked wells of the 96-well plate. Each concentration was plated in triplicate. 20 μl of medium alone was added to control wells while wells without cells served as blanks. A total volume of 200 μL was ensured in each well and plate was left in incubator (37° C., 5% CO2). After 72 hours of incubation an MTT assay was performed and percentage cytotoxicity was calculated with respect to control cells.

PTC (colon) = test: In vitro cytotoxic activity, MTT assay, 72 hours; type: cell-based, human
Experimental: as §1, §2

Su.86.86 (pancreas) = test: In vitro cytotoxic activity, MTT assay, 72 hours; type: cell-based, human; settings: Su8686, 100 pM
Experimental: as §1, §2

[1] = tested on: human colon adenocarcinoma (PTC) xenografts; test: In vivo anti tumor activity on PTC tumor xenografts; design: species or system Balb/c athymic nude mice; settings: 4.25 μg intravenously twice a day; for Tumor volumes, Average: group average
Experimental: In vivo Anti Tumor Activity of Substance P Analogs on PCT Tumor Xenografts Protocol The anti tumor activity of substance P analogs was studied in human colon adenocarcinoma (PTC) xenografts in nude mice. PTC tumor xenografts were grown in Balb/c athymic nude mice by subcutaneous inoculation of a single cell suspension of PTC cells (15×10^6 cells/100 μL). The tumor bearing animals were divided into 4 groups of three animals each including one group comprising untreated control animals. Treatment with Substance P Receptor Antagonists was initiated when the average tumor volumes, as measured using a vernier caliper, were between 400-800 mm^3. SEQ ID NO:5, SEQ ID NO:7 and SEQ ID NO:8 peptides were prepared at a concentration of 42.5 μg/ml and intravenously administered to the assigned group of tumor bearing animals at a dose of 4.25 μg/100 μL twice a day so that the total dose of 8.5 μg was administered to each animal. The treatment was continued for a period of 10 days. The antitumor activity of the compounds was monitored by measuring 15 tumor volumes every fourth day using the formula W*W*L*0.4 (W=smaller diameter, L=larger diameter). The percentage inhibition of tumor growth was calculated using. the formula (1−tumor volume-treated/ tumor volume-control)×100.

KB (oral) = test: In vitro cytotoxic activity, MTT assay, 72 hours; type: cell-based, human; settings: 100 pM
Experimental: as §1, §2

L132 (lung) = test: In vitro cytotoxic activity, MTT assay, 72 hours; type: cell-based, human
Experimental: as §1, §2

SCLC cells = settings: SCLC proliferation; read-out: IC50, inhibition of SCLC proliferation; cited from earlier work
Swiss 3T3 cells = settings: cited from earlier work
SCLC xenografts = settings: cited from earlier work
H-510 SCLC cells = settings: liquid culture and semi-solid media, read-out: IC50, inhibition of proliferation; cited from earlier work
H-69 SCLC cells = settings: liquid culture and semi-solid media, read-out: IC50, inhibition of proliferation; cited from earlier work
H69 SCLC cells = settings: cited from earlier work
[2] = tested on: H69 SCLC cells xenografts; settings: xenografts in vivo in nude mice; cited from earlier work

CC(C)C[C@H](NC(=O)[C@@H](Cc1c[nH]c2ccccc12)NC(=O)[C@H](Cc1ccccc1)NC(=O)[C@@H](Cc1c[nH]c2ccccc12)NC(=O)[C@H](CCC(N)=O)NC(=O)[C@@H](Cc1ccccc1)NC(=O)[C@@H]1CCCN1C(=O)[C@H](CCCCN)NC(=O)[C@@H]1CCCN1C(=O)[C@H](N)CCCNC(=N)N)C(=O)NC1(C(N)=O)CCCC1 [SEQ ID NO: 5, D-Arg-Pro-Lys-Pro-D-Phe-Gln-D-Trp-Phe-D-Trp-Leu-Ac5c-NH2] (H-[dR]PKP[dF]Q[dW]F[dW]L[Ac5c]-NH2; N-terminus assumed)
Percentage cytotoxicity (MCF7 (breast)): Nil | Percentage cytotoxicity (PTC (colon); 100 pM): Nil | Percentage cytotoxicity (PTC (colon); 1 nM): 3.1 ± 0.5% | Percentage cytotoxicity (Su.86.86 (pancreas)): Nil | Tumor volumes, animal I ([1]; Day 6): 307.8 mm^3 | Tumor volumes, animal II ([1]; Day 6): 520 mm^3 | Tumor volumes, animal III ([1]; Day 6): 687.7 mm^3 | Tumor volumes, Average ([1]; Day 6): 505.1 mm^3 | Tumor volumes, animal I ([1]; Day 8): 748.8 mm^3 | Tumor volumes, animal II ([1]; Day 8): 1149.2 mm^3 | Tumor volumes, animal III ([1]; Day 8): 1411.2 mm^3 | Tumor volumes, Average ([1]; Day 8): 1103.0 mm^3 | Tumor volumes, animal I ([1]; Day 12): 2049 mm^3 | Tumor volumes, animal II ([1]; Day 12): 3080.3 mm^3 | Tumor volumes, animal III ([1]; Day 12): 3840.0 mm^3 | Tumor volumes, Average ([1]; Day 12): 2989.7 mm^3 | Tumor volumes, animal I ([1]; Day 15): 3310 mm^3 | Tumor volumes, animal II ([1]; Day 15): 3360 mm^3 | Tumor volumes, animal III ([1]; Day 15): 4480.0 mm^3 | Tumor volumes, Average ([1]; Day 15): 3716.6 mm^3 | Tumor volumes, animal I ([1]; Day 19): 3582 mm^3 | Tumor volumes, animal II ([1]; Day 19): 1465.6 mm^3 | Tumor volumes, animal III ([1]; Day 19): 3499.2 mm^3 | Tumor volumes, Average ([1]; Day 19): 2848.9 mm^3 | Tumor volumes, animal II ([1]; Day 22): 100 mm^3 | Tumor volumes, animal III ([1]; Day 22): 2560.0 mm^3 | Tumor volumes, Average ([1]; Day 22): 1330.0 mm^3

CCCC(=O)N[C@H](CCCNC(=N)N)C(=O)N1CCC[C@H]1C(=O)N[C@@H](CCCCN)C(=O)N1CCC[C@H]1C(=O)N[C@H](Cc1ccccc1)C(=O)N[C@@H](CCC(N)=O)C(=O)N[C@H](Cc1c[nH]c2ccccc12)C(=O)N[C@@H](Cc1ccccc1)C(=O)N[C@H](Cc1c[nH]c2ccccc12)C(=O)N[C@@H](CC(C)C)C(=O)NC1(C(N)=O)CCCC1 [SEQ ID NO: 7, Butanoyl-D-Arg-Pro-Lys-Pro-D-Phe-Gln-D-Trp-Phe-D-Trp-Leu-Ac5c-NH2] (Butyryl-[dR]PKP[dF]Q[dW]F[dW]L[Ac5c]-NH2)
Percentage cytotoxicity (KB (oral)): Nil | Percentage cytotoxicity (L132 (lung); 100 nM): 9 ± 2.3% | Percentage cytotoxicity (L132 (lung); 10 μM): 15 ± 2.3% | Percentage cytotoxicity (PTC (colon); 100 pM): Nil | Percentage cytotoxicity (PTC (colon); 1 nM): Nil | Tumor volumes, animal I ([1]; Day 6): 25.6 mm^3 | Tumor volumes, animal II ([1]; Day 6): 66.6 mm^3 | Tumor volumes, animal III ([1]; Day 6): 0 mm^3 | Tumor volumes, Average ([1]; Day 6): 30.7 mm^3 | Tumor volumes, animal I ([1]; Day 8): 176.4 mm^3 | Tumor volumes, animal II ([1]; Day 8): 260.1 mm^3 | Tumor volumes, animal III ([1]; Day 8): 72 mm^3 | Tumor volumes, Average ([1]; Day 8): 169.5 mm^3 | Tumor volumes, animal I ([1]; Day 12): 580.8 mm^3 | Tumor volumes, animal II ([1]; Day 12): 1440 mm^3 | Tumor volumes, animal III ([1]; Day 12): 281.6 mm^3 | Tumor volumes, Average ([1]; Day 12): 767.4 mm^3 | Tumor volumes, animal I ([1]; Day 15): 946.4 mm^3 | Tumor volumes, animal II ([1]; Day 15): 2427.6 mm^3 | Tumor volumes, animal III ([1]; Day 15): 864 mm^3 | Tumor volumes, Average ([1]; Day 15): 1412.6 mm^3 | Tumor volumes, animal I ([1]; Day 19): 1741 mm^3 | Tumor volumes, animal II ([1]; Day 19): 2253 mm^3 | Tumor volumes, animal III ([1]; Day 19): 1800 mm^3 | Tumor volumes, Average ([1]; Day 19): 1931.3 mm^3 | Tumor volumes, animal I ([1]; Day 22): 2018 mm^3 | Tumor volumes, animal II ([1]; Day 22): 3110 mm^3 | Tumor volumes, animal III ([1]; Day 22): 0 mm^3 | Tumor volumes, Average ([1]; Day 22): 1709.3 mm^3

CCCCCCCC(=O)N[C@H](CCCNC(=N)N)C(=O)N1CCC[C@H]1C(=O)N[C@@H](CCCCN)C(=O)N1CCC[C@H]1C(=O)N[C@H](Cc1ccccc1)C(=O)N[C@@H](CCC(N)=O)C(=O)N[C@H](Cc1c[nH]c2ccccc12)C(=O)N[C@@H](Cc1ccccc1)C(=O)N[C@H](Cc1c[nH]c2ccccc12)C(=O)N[C@@H](CC(C)C)C(=O)NC1(C(N)=O)CCCC1 [SEQ ID NO: 8, Octanoyl-D-Arg-Pro-Lys-Pro-D-Phe-Gln-D-Trp-Phe-D-Trp-Leu-Ac5c-NH2] (Octanoyl-[dR]PKP[dF]Q[dW]F[dW]L[Ac5c]-NH2)
Tumor volumes, animal I ([1]; Day 6): 532.4 mm^3 | Tumor volumes, animal II ([1]; Day 6): 291.6 mm^3 | Tumor volumes, animal III ([1]; Day 6): 0 mm^3 | Tumor volumes, Average ([1]; Day 6): 274.6 mm^3 | Tumor volumes, animal I ([1]; Day 8): 1020.6 mm^3 | Tumor volumes, animal II ([1]; Day 8): 691.2 mm^3 | Tumor volumes, animal III ([1]; Day 8): 0 mm^3 | Tumor volumes, Average ([1]; Day 8): 570.6 mm^3 | Tumor volumes, animal I ([1]; Day 12): 2080.8 mm^3 | Tumor volumes, animal II ([1]; Day 12): 1440 mm^3 | Tumor volumes, animal III ([1]; Day 12): 156.8 mm^3 | Tumor volumes, Average ([1]; Day 12): 1225.8 mm^3 | Tumor volumes, animal I ([1]; Day 15): 3880.8 mm^3 | Tumor volumes, animal II ([1]; Day 15): 2592 mm^3 | Tumor volumes, animal III ([1]; Day 15): 580.8 mm^3 | Tumor volumes, Average ([1]; Day 15): 2351.2 mm^3 | Tumor volumes, animal I ([1]; Day 19): 3520.0 mm^3 | Tumor volumes, animal II ([1]; Day 19): 1474.8 mm^3 | Tumor volumes, animal III ([1]; Day 19): 1710 mm^3 | Tumor volumes, Average ([1]; Day 19): 2234.9 mm^3 | Tumor volumes, animal I ([1]; Day 22): 2312.0 mm^3 | Tumor volumes, animal II ([1]; Day 22): 36 mm^3 | Tumor volumes, animal III ([1]; Day 22): 3177 mm^3 | Tumor volumes, Average ([1]; Day 22): 1841.6 mm^3

D-MePhe-D-Trp-Phe-D-TrpLeu(psi)-(CH2NH)-Leu-NH2) [Analog 6]
IC50 (SCLC cells): 2 µM

D-MePhe-D-Trp-Phe-DTrp-Leu-MPA [Analog 7]
IC50 (SCLC cells): 5 µM

[Arg^6,D-Trp^7,9, MePhe^8] substance P(6-11) [antagonist G]
potency relative to antagonist D (Swiss 3T3 cells; blocking bombesin/GRP mediated mitogenesis in Swiss 3T3 cells): ten fold less potent than antagonist D | inhibition of SCLC xenografts in vivo (SCLC xenografts): showed inhibition of SCLC xenografts in vivo

[D-Arg^1, D-Phe^5, D-Trp^7,9, Leu^11] substance P [Antagonist D]
IC50 (H-510 SCLC cells): 5 µM | IC50 (H-69 SCLC cells): 5 µM | potency relative to antagonist A (Swiss 3T3 cells; preventing cellular effects of bombesin/GRP and vasopressin in mouse 3T3 cells, also growth of SCLC cells in serumfree medium): five fold more potent than antagonist A

pHOPA-D-Trp-Phe-D-Trp-Leu-Leu-NH2 (pHOPA-[dW]F[dW]LL-NH2; reading uncertain) [Analog R]
inhibition of proliferation of H69 SCLC cells in vitro (H69 SCLC cells): inhibit the proliferation | inhibition of proliferation of H69 SCLC cells in xenografts [2]: inhibit the proliferation
